Usually Ki stands for the equilibrium dissociation constant of an inhibitor or competing ligand from its target.

The structures appear in SMILES notation.

The record followed here is BindingDB's records for doi:10.1046/j.1471-4159.1994.63020456.x (Syntex Discovery Research, 1994).

Chain of 5-hydroxytryptamine receptor 7 (P50407 whole entry): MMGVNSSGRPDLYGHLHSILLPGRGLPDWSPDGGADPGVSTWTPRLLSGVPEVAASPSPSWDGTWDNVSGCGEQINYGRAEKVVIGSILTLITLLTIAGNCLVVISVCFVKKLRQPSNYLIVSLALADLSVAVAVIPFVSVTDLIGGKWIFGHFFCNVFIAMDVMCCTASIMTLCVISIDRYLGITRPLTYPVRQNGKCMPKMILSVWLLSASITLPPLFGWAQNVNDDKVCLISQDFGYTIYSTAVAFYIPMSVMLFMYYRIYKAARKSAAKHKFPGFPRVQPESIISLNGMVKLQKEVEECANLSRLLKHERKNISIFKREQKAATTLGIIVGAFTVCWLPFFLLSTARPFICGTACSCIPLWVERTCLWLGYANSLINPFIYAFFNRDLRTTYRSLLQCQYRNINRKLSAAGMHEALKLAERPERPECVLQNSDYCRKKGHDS

This assay concerns the target 5-hydroxytryptamine receptor 7 (Cavia porcellus, UniProt P50407).
`CCCN(CCC)C1CCc2cccc(O)c2C1` (configuration not stated) returned a Ki of 0.0501 µM. The molecule `CC[C@@H](CO)NC(=O)[C@@H]1C=C2c3cccc4c3c(cn4C)C[C@H]2N(C)C1` displayed an inhibitory constant (Ki) of 0.0398 µM. The same measure for `CN(C)CCc1c[nH]c2ccc(O)cc12` [3-[2-(dimethylamino)ethyl]indol-5-ol]: 0.0199 µM. The molecule `O=C(CCCN1CCC2(CC1)C(=O)NCN2c1ccccc1)c1ccc(F)cc1` [8-[4-(4-fluorophenyl)-4-oxidanylidene-butyl]-1-phenyl-1,3,8-triazaspiro[4.5]decan-4-one] gave a Ki of 0.1 µM. Then `CNS(=O)(=O)Cc1ccc2[nH]cc(CCN(C)C)c2c1` [Sumax], with 0.251 µM; and `NCCc1c[nH]c2ccc(O)cc12` [[3H]-5-HT], with 0.001 µM; and `COc1ccc2[nH]cc(CCN)c2c1` [tryptamine, 5-Methoxy], with 0.001 µM.
